system: myostatin gene expression in C2C12 cells; assay: Inhibition of myostatin expression in C2C12 cells (qPCR); format: cell-based; conditions: Mus musculus, percentage myostatin gene expression in cells in contact with the compounds related to control cells, C2C12, 6 h
Experimental: After several experiments in which the C2C12 cells differentiated into myotubes were incubated in the presence of IGF-1 or 20E for 2 h 30 or 6 h, two screening tests were developed. Thus, the phosphorylation of the S6 protein kinase and the expression of the myostatin gene were studied in order to determine their modulation by a growth hormone or an ecdysone and to characterize these modulations from a statistical point of view. The C2C12 myoblast cells (ATCC CRL-1772) are seeded into 24-well plates at a density of 30 000 cells per well and cultured in a DMEM medium containing glucose in a proportion of 4.5 g/l and supplemented with fetal calf serum (10%) and with antibiotics (penicillin and streptomycin). Forty-eight hours later, the myoblasts are induced to differentiate by partial serum depletion (2% instead of 10%) for 5 days. The cells are then placed in a medium which is glucose-depleted (DMEM containing 1 g/l of glucose) and serum-free in the presence of the test molecules or of the references (100 ng/ml IGF-1 or 10 μ[…]) for 6 h. At the end of the experiment, the messenger RNAs (mRNAs) are extracted using the conventional methodology based on phenol and chloroform. Briefly, the cells are lysed in a Trizol solution (Sigma T9424) containing a strong acid and phenol. The mRNAs are separated from the proteins by addition of chloroform and then centrifugation. They are then precipitated from isopropanol and then suspended at a concentration of 1 μg/μl in an […] ultrapure water. 1 μg of mRNA is then converted by reverse transcription into complementary DNA by the AMV enzyme in the presence of a primer and of a mixture of nucleotides according to the protocol given by the supplier (Applied Biosystems 4368814). […] The qPCRs are carried out on a 7900HT Fast real-Time PCR detection system (Applied Biosystems). The programming conditions are standard and consist of 1 cycle at 95° C. for 15 min, followed by 40 cycles at 95° C. for 15 s and at 60° C. for 1 min and the program ends with a melt curve step between 60° C. and 95° C. […] Fluorescent probes bind to the double-stranded DNA and are fluorescent only once bound to the DNA. A fluorescence threshold is established by the machine's program. When the amount of DNA allows the fluorescent probe to exceed this threshold, a PCR cycle number, called “Ct” for “Cycle Threshold”, is obtained. It is this value which forms the basis of the calculations to quantify the DNA relatively. A ratio R is established between the amount of starting DNA of a sample and that of a control, which has not undergone treatment (i.e. […] R=2^-ΔΔCt).

`CC(C)=CCO/N=C(/C)[C@H]1CC[C@@]2(O)C3=CC(=O)[C@@H]4C[C@@H](O)[C@@H](O)C[C@]4(C)C3CC[C@]12C` (stereo partly drawn) [Compound 30, (2S,3R,5R,10R,13R,14S,17S)-2,3,14-trihydroxy-10,13-dimethyl-17-(C-methyl-N-(3-methylbut-2-enoxy)carbonimidoyl)-2,3,4,5,9,11,12,15,16,17-decahydro-1H-cyclopenta[a]phenanthren-6-one] and `CCO/N=C(/C)[C@H]1CC[C@@]2(O)C3=CC(=O)[C@@H]4C[C@@H](O)[C@@H](O)C[C@]4(C)C3CC[C@]12C` (stereo partly drawn) [Compound 23, (2S,3R,5R,10R,13R,14S,17S)-17-(N-ethoxy-C-methylcarbonimidoyl)-2,3,14-trihydroxy-10,13-dimethyl-2,3,4,5,9,11,12,15,16,17-decahydro-1H-cyclopenta[a]phenanthren-6-one] fall in the same range of mrna remaining at 10 µM: 71 to 85% for the first, 71 to 85% for the second.

`CC([C@H]1CC[C@@]2(O)C3=CC(=O)[C@@H]4C[C@@H](O)[C@@H](O)C[C@]4(C)C3CC[C@]12C)N(CC(F)F)C(=O)OC(C)(C)C` (stereo partly drawn) [Compound 71, Tert-butyl N-(2,2-difluoroethyl)-N-[1-[(2S,3R,5R,10R,13R,14S,17S)-2,3,14-trihydroxy-10,13-dimethyl-6-oxo-2,3,4,5,9,11,12,15,16,17-decahydro-1H-cyclopenta[a]phenanthren-17-yl]ethyl]carbamate] and `COCCN(C(=O)C(C)C)C(C)[C@H]1CC[C@@]2(O)C3=CC(=O)[C@@H]4C[C@@H](O)[C@@H](O)C[C@]4(C)C3CC[C@]12C` (stereo partly drawn) [Compound 75, N-(2-methoxyethyl)-2-methyl-N-[1-[(2S,3R,5R,10R,13R,14S,17S)-2,3,14-trihydroxy-10,13-dimethyl-6-oxo-2,3,4,5,9,11,12,15,16,17-decahydro-1H-cyclopenta[a]phenanthren-17-yl]ethyl]propanamide] cannot be ordered by mrna remaining at 10 µM: under 70% for the first, under 70% for the second.

`CO/N=C1\C=C2C(CC[C@]3(C)[C@@H](C(C)N(CC(OC)OC)C(=O)C(C)C)CC[C@@]23O)[C@@]2(C)C[C@H](O)[C@H](O)C[C@@H]12` (stereo partly drawn) [Compound 38, N-(2,2-dimethoxyethyl)-2-methyl-N-[1-[(2S,3R,5R,6E,10R,13R,14S,17S)-2,3,14-trihydroxy-6-methoxyimino-10,13-dimethyl-2,3,4,5,9,11,12,15,16,17-decahydro-1H-cyclopenta[a]phenanthren-17-yl]ethyl]propanamide] and `COC(CN(C)C(C)[C@H]1CC[C@@]2(O)C3=CC(=O)[C@@H]4C[C@@H](O)[C@@H](O)C[C@]4(C)C3CC[C@]12C)OC` (stereo partly drawn) [Compound 79, (2S,3R,5R,10R,13R,14S,17S)-17-[1-(2,2-dimethoxyethyl(methyl)amino)ethyl]-2,3,14-trihydroxy-10,13-dimethyl-2,3,4,5,9,11,12,15,16,17-decahydro-1H-cyclopenta[a]phenanthren-6-one] cannot be ordered by mrna remaining at 10 µM: under 70% for the first, under 70% for the second.

First: CO/N=C(/C)[C@H]1CC[C@@]2(O)C3=CC(=O)[C@@H]4C[C@@H](O)[C@@H](O)C[C@]4(C)C3CC[C@]12C (stereo partly drawn) [Compound 25, (2S,3R,5R,10R,13R,14S,17S)-17-(N-methoxy-C-methylcarbonimidoyl)-2,3,14-trihydroxy-10,13-dimethyl-2,3,4,5,9,11,12,15,16,17-decahydro-1H-cyclopenta[a]phenanthren-6-one]
Second: C/C(=N/OCCN(C)C)[C@H]1CC[C@@]2(O)C3=CC(=O)[C@@H]4C[C@@H](O)[C@@H](O)C[C@]4(C)C3CC[C@]12C (stereo partly drawn) [Compound 35, (2S,3R,5R,10R,13R,14S,17S)-17-(N-(2-dimethylaminoethoxy)-C-methylcarbonimidoyl)-2,3,14-trihydroxy-10,13-dimethyl-2,3,4,5,9,11,12,15,16,17-decahydro-1H-cyclopenta[a]phenanthren-6-one]
The mrna remaining at 10 µM of the first is lower: under 70% for the first, 71 to 85% for the second.

First: C=CC(=O)N(CC1CCCO1)C(C)[C@H]1CC[C@@]2(O)C3=CC(=O)[C@@H]4C[C@@H](O)[C@@H](O)C[C@]4(C)C3CC[C@]12C (stereo partly drawn) [Compound 48, N-(tetrahydrofuran-2-ylmethyl)-N-[1-[(2S,3R,5R,10R,13R,14S,17S)-2,3,14-trihydroxy-10,13-dimethyl-6-oxo-2,3,4,5,9,11,12,15,16,17-decahydro-1H-cyclopenta[a]phenanthren-17-yl]ethyl]prop-2-enamide]
Second: CC([C@H]1CC[C@@]2(O)C3=CC(=O)[C@@H]4C[C@@H](O)[C@@H](O)C[C@]4(C)C3CC[C@]12C)N(CC1CCCO1)C(=O)C1CC1 (stereo partly drawn) [Compound 47, N-(tetrahydrofuran-2-ylmethyl)-N-[1-[(2S,3R,5R,10R,13R,14S,17S)-2,3,14-trihydroxy-10,13-dimethyl-6-oxo-2,3,4,5,9,11,12,15,16,17-decahydro-1H-cyclopenta[a]phenanthren-17-yl]ethyl]cyclopropanecarboxamide]
The mrna remaining at 10 µM of the first is higher: 71 to 85% for the first, under 70% for the second.

Compared with `C/C(=N/OCCOc1ccccc1)[C@H]1CC[C@@]2(O)C3=CC(=O)[C@@H]4C[C@@H](O)[C@@H](O)C[C@]4(C)C3CC[C@]12C` (stereo partly drawn) [Compound 27, (2S,3R,5R,10R,13R,14S,17S)-2,3,14-trihydroxy-10,13-dimethyl-17-(C-methyl-N-(2-phenoxyethoxy)carbonimidoyl)-2,3,4,5,9,11,12,15,16,17-decahydro-1H-cyclopenta[a]phenanthren-6-one], `COCCON=C(C)[C@H]1CC[C@@]2(O)C3=C/C(=N\OC)[C@@H]4C[C@@H](O)[C@@H](O)C[C@]4(C)C3CC[C@]12C` (stereo partly drawn) [Compound 19, (2S,3R,5R,6E,10R,13R,14S,17S)-17-(N-(2-methoxyethoxy)-C-methylcarbonimidoyl)-6-methoxyimino-10,13-dimethyl-2,3,4,5,9,11,12,15,16,17-decahydro-1H-cyclopenta[a]phenanthrene-2,3,14-triol] is higher in mrna remaining at 10 µM: under 70% for the first, 71 to 85% for the second.

`CC(=NOCC(=O)O)[C@H]1CCC2C3=CC(=O)[C@@H]4C[C@@H](O)[C@@H](O)C[C@]4(C)C3CC[C@@]21C` (stereo partly drawn) [Compound 4, 2-[1-[(2S,3R,5R,10R,13S,17S)-2,3-dihydroxy-10,13-dimethyl-6-oxo-1,2,3,4,5,9,11,12,14,15,16,17-dodecahydrocyclopenta[a]phenanthren-17-yl]ethylideneamino]oxyacetic acid] and `COC(CN(C(=O)C1CC1)C(C)[C@H]1CC[C@@]2(O)C3=CC(=O)[C@@H]4C[C@@H](O)[C@@H](O)C[C@]4(C)C3CC[C@]12C)OC` (stereo partly drawn) [Compound 65, N-(2,2-dimethoxyethyl)-N-[1-[(2S,3R,5R,10R,13R,14S,17S)-2,3,14-trihydroxy-10,13-dimethyl-6-oxo-2,3,4,5,9,11,12,15,16,17-decahydro-1H-cyclopenta[a]phenanthren-17-yl]ethyl]cyclopropanecarboxamide] cannot be ordered by mrna remaining at 10 µM: under 70% for the first, under 70% for the second.

`CO/N=C1\C=C2C(CC[C@]3(C)[C@@H](C(C)N(CC(F)F)C(=O)c4ccco4)CC[C@@]23O)[C@@]2(C)C[C@H](O)[C@H](O)C[C@@H]12` (stereo partly drawn) [Compound 37, N-(2,2-difluoroethyl)-N-[1-[(2S,3R,5R,6E,10R,13R,14S,17S)-2,3,14-trihydroxy-6-methoxyimino-10,13-dimethyl-2,3,4,5,9,11,12,15,16,17-decahydro-1H-cyclopenta[a]phenanthren-17-yl]ethyl]furan-2-carboxamide] and `CC([C@H]1CC[C@@]2(O)C3=CC(=O)[C@@H]4C[C@@H](O)[C@@H](O)C[C@]4(C)C3CC[C@]12C)N(Cc1cccnc1)C(=O)c1ccco1` (stereo partly drawn) [Compound 73, N-(3-pyridylmethyl)-N-[1-[(2S,3R,5R,10R,13R,14S,17S)-2,3,14-trihydroxy-10,13-dimethyl-6-oxo-2,3,4,5,9,11,12,15,16,17-decahydro-1H-cyclopenta(a)phenanthren-17-yl]ethyl]furan-2-carboxamide] fall in the same range of mrna remaining at 10 µM: 71 to 85% for the first, 71 to 85% for the second.

With `CC([C@H]1CC[C@@]2(O)C3=CC(=O)[C@@H]4C[C@@H](O)[C@@H](O)C[C@]4(C)C3CC[C@]12C)N(C(=O)c1ccc(C#N)cc1)C1CC1` (stereo partly drawn) [Compound 56, 4-cyano-N-cyclopropyl-N-[1-[(2S,3R,5R,10R,13R,14S,17S)-2,3,14-trihydroxy-10,13-dimethyl-6-oxo-2,3,4,5,9,11,12,15,16,17-decahydro-1H-cyclopenta[a]phenanthren-17-yl]ethyl]benzamide] the mrna remaining at 10 µM was 71 to 85%.

Source: patent US10316056B2, “Chemical compounds and use thereof for improving muscular quality” (BIOPHYTIS, priority 2014, dated 2019)
